Assay results as given in PMC5218480 (PLoS ONE, 2017).

System: MV-4-11 cells
Assay: Gene expression microarray analysis (Affymetrix PrimeView) and GSEA
Format: cell-based, human
Design: RFU PODN (11730768_x_at) / Fold change /veh PODN (11730768_x_at) / RFU LINC00158 (11744669_a_at) / Fold change /veh LINC00158 (11744669_a_at) / RFU DUSP10 (11751237_a_at) / Fold change /veh DUSP10 (11751237_a_at) / RFU ID3 (11757404_x_at) / Fold change /veh ID3 (11757404_x_at) / RFU PLEKHG5 (11737974_s_at) / Fold change /veh PLEKHG5 (11737974_s_at) / RFU LRRC4B (11730491_at) / Fold change /veh LRRC4B (11730491_at) / RFU GIMAP4 (11747438_a_at) / Fold change /veh GIMAP4 (11747438_a_at) / RFU KRT8 (11758183_x_at) / Fold change /veh KRT8 (11758183_x_at) / RFU CNN1 (11734310_a_at) / Fold change /veh CNN1 (11734310_a_at) / RFU VPS37D (11726825_at) / Fold change /veh VPS37D (11726825_at) / RFU C10orf10 (11716522_x_at) / Fold change /veh C10orf10 (11716522_x_at) / RFU KIR2DL2 /// KIR2DL4 /// KIR2DL5A /// KIR2DL5B /// KIR2DS1 /// KIR2DS2 /// KIR2DS3 /// KIR2DS4 /// KIR3DL3 /// KIR3DL3 /// KIR3DS1 (11738374_at) / Fold change /veh KIR2DL2 /// KIR2DL4 /// KIR2DL5A /// KIR2DL5B /// KIR2DS1 /// KIR2DS2 /// KIR2DS3 /// KIR2DS4 /// KIR3DL3 /// KIR3DL3 /// KIR3DS1 (11738374_at) / RFU C1QL1 (11718748_at) / Fold change /veh C1QL1 (11718748_at) / RFU TMPRSS4 (11747572_a_at) / Fold change /veh TMPRSS4 (11747572_a_at) / RFU HAMP (11756126_x_at) / Fold change /veh HAMP (11756126_x_at) / RFU RNFT2 (11725882_a_at) / Fold change /veh RNFT2 (11725882_a_at) / RFU NR4A2 (11747474_a_at) / Fold change /veh NR4A2 (11747474_a_at) / RFU ABCC12 (11746883_a_at) / Fold change /veh ABCC12 (11746883_a_at) / RFU TMEM136 (11760407_x_at) / Fold change /veh TMEM136 (11760407_x_at) / RFU CLDN22 /// WWC2 (11732394_at) / Fold change /veh CLDN22 /// WWC2 (11732394_at) / RFU HLA-DPB1 (11760878_x_at) / Fold change /veh HLA-DPB1 (11760878_x_at) / RFU SPINT1 (11716480_a_at) / Fold change /veh SPINT1 (11716480_a_at) / RFU GAP43 (11754022_s_at) / Fold change /veh GAP43 (11754022_s_at) / RFU A4GNT (11735810_at) / Fold change /veh A4GNT (11735810_at) / RFU PRB3 (11715151_x_at) / Fold change /veh PRB3 (11715151_x_at) / RFU TUBB4B (11761932_at) / Fold change /veh TUBB4B (11761932_at) / RFU CAPN14 (11732068_a_at) / Fold change /veh CAPN14 (11732068_a_at) / RFU TMCC2 (11721928_a_at) / Fold change /veh TMCC2 (11721928_a_at) / RFU IRGQ (11745062_a_at) / Fold change /veh IRGQ (11745062_a_at) / RFU FAM174B (11720279_a_at) / Fold change /veh FAM174B (11720279_a_at) / RFU TMPRSS4 (11748680_a_at) / Fold change /veh TMPRSS4 (11748680_a_at) / RFU FAM212B (11763350_a_at) / Fold change /veh FAM212B (11763350_a_at) / RFU PLEKHG5 (11743358_a_at) / Fold change /veh PLEKHG5 (11743358_a_at) / RFU ZSCAN30 (11745921_a_at) / Fold change /veh ZSCAN30 (11745921_a_at) / RFU CMKLR1 (11741424_a_at) / Fold change /veh CMKLR1 (11741424_a_at) / RFU LOC101060620 /// MAPK8IP1 (11723275_at) / Fold change /veh LOC101060620 /// MAPK8IP1 (11723275_at) / RFU SPTSSB (11747773_x_at) / Fold change /veh SPTSSB (11747773_x_at) / RFU PRSS12 (11739890_at) / Fold change /veh PRSS12 (11739890_at) / RFU BIN1 (11741810_x_at) / Fold change /veh BIN1 (11741810_x_at) / RFU WNT11 (11732464_a_at) / Fold change /veh WNT11 (11732464_a_at) / RFU C10orf10 (11716521_a_at) / Fold change /veh C10orf10 (11716521_a_at) / RFU C5orf56 (11738089_at) / Fold change /veh C5orf56 (11738089_at) / RFU CYB561 (11721691_x_at) / Fold change /veh CYB561 (11721691_x_at) / RFU ANKRD19P (11752326_a_at) / Fold change /veh ANKRD19P (11752326_a_at) / RFU OR2T12 /// OR2T33 /// OR2T8 (11738714_s_at) / Fold change /veh OR2T12 /// OR2T33 /// OR2T8 (11738714_s_at) / RFU VCAN (11748164_a_at) / Fold change /veh VCAN (11748164_a_at) / RFU JSRP1 (11732532_at) / Fold change /veh JSRP1 (11732532_at) / RFU KRTAP10-11 (11738290_x_at) / Fold change /veh KRTAP10-11 (11738290_x_at) / RFU MYO3A (11730013_a_at) / Fold change /veh MYO3A (11730013_a_at) / RFU EBF3 (11725865_a_at) / Fold change /veh EBF3 (11725865_a_at) / RFU CAMK2N1 (11719241_x_at) / Fold change /veh CAMK2N1 (11719241_x_at) / RFU C5orf56 (11738088_a_at) / Fold change /veh C5orf56 (11738088_a_at) / RFU OLFML3 (11715873_a_at) / Fold change /veh OLFML3 (11715873_a_at) / RFU LOC100653217 /// NTM (11731650_a_at) / Fold change /veh LOC100653217 /// NTM (11731650_a_at) / RFU MAPK11 (11762145_a_at) / Fold change /veh MAPK11 (11762145_a_at) / RFU FIZ1 (11724087_x_at) / Fold change /veh FIZ1 (11724087_x_at) / RFU OASL (11726364_x_at) / Fold change /veh OASL (11726364_x_at) / RFU SOX15 (11748057_x_at) / Fold change /veh SOX15 (11748057_x_at) / RFU CD79A (11719716_a_at) / Fold change /veh CD79A (11719716_a_at) / RFU HIST1H1D (11736915_at) / Fold change /veh HIST1H1D (11736915_at) / RFU CASKIN2 (11723855_a_at) / Fold change /veh CASKIN2 (11723855_a_at) / RFU LOC730098 (11760151_x_at) / Fold change /veh LOC730098 (11760151_x_at) / RFU OR4N2 (11742367_at) / Fold change /veh OR4N2 (11742367_at) / RFU PRRT2 (11749266_a_at) / Fold change /veh PRRT2 (11749266_a_at) / RFU SNX32 (11753110_a_at) / Fold change /veh SNX32 (11753110_a_at) / RFU CDHR5 (11726645_a_at) / Fold change /veh CDHR5 (11726645_a_at) / RFU RCAN1 (11760418_a_at) / Fold change /veh RCAN1 (11760418_a_at) / RFU FAM167A (11723789_a_at) / Fold change /veh FAM167A (11723789_a_at) / RFU FAM26E (11764081_at) / Fold change /veh FAM26E (11764081_at) / RFU ISYNA1 (11749810_s_at) / Fold change /veh ISYNA1 (11749810_s_at) / RFU ACY1 (11761880_at) / Fold change /veh ACY1 (11761880_at) / RFU 11764098_at / Fold change /veh 11764098_at / RFU SAMD14 (11745864_x_at) / Fold change /veh SAMD14 (11745864_x_at) / RFU NPB (11741838_a_at) / Fold change /veh NPB (11741838_a_at) / RFU TMPRSS6 (11731388_a_at) / Fold change /veh TMPRSS6 (11731388_a_at) / RFU KRTAP10-2 (11738614_at) / Fold change /veh KRTAP10-2 (11738614_at) / RFU ARHGAP8 /// PRR5-ARHGAP8 (11727945_x_at) / Fold change /veh ARHGAP8 /// PRR5-ARHGAP8 (11727945_x_at) / RFU KRTAP5-7 /// NADSYN1 (11734609_at) / Fold change /veh KRTAP5-7 /// NADSYN1 (11734609_at) / RFU RASL12 (11751679_a_at) / Fold change /veh RASL12 (11751679_a_at) / RFU CDKN2B (11736163_a_at) / Fold change /veh CDKN2B (11736163_a_at) / RFU PRF1 (11729649_at) / Fold change /veh PRF1 (11729649_at) / RFU, ZNF638 /// ZNF638-IT1 / Fold change vs veh, ZNF638 /// ZNF638-IT1 / RFU, PANK3 / Fold change vs veh, PANK3 / RFU, SH3YL1 / Fold change vs veh, SH3YL1 / RFU, ZEB2 / Fold change vs veh, ZEB2 / RFU, NRIP1 / Fold change vs veh, NRIP1 / RFU, PTTG1IP / Fold change vs veh, PTTG1IP / RFU, CAPN2 / Fold change vs veh, CAPN2 / RFU, MED14 / Fold change vs veh, MED14 / RFU, SNORA58 / Fold change vs veh, SNORA58 / RFU, C1orf63 / Fold change vs veh, C1orf63 / RFU, LRRFIP1 / Fold change vs veh, LRRFIP1 / RFU, NDUFAF7 / Fold change vs veh, NDUFAF7 / RFU, SLC12A2 / Fold change vs veh, SLC12A2 / RFU, IBTK / Fold change vs veh, IBTK / RFU, ESF1 / Fold change vs veh, ESF1 / Fold change vs veh, TMEM50B / RFU, TAOK1 / Fold change vs veh, TAOK1 / RFU, ACBD3 / Fold change vs veh, ACBD3 / RFU, TMA16 / Fold change vs veh, TMA16 / RFU, RWDD3 / Fold change vs veh, RWDD3 / RFU, BCAT1 / Fold change vs veh, BCAT1 / RFU, EDEM3 / Fold change vs veh, EDEM3 / RFU, TMEM33 / Fold change vs veh, TMEM33 / RFU, WDR75 / Fold change vs veh, WDR75 / RFU, AHCTF1 / Fold change vs veh, AHCTF1 / RFU, TFRC / Fold change vs veh, TFRC / RFU, ZDHHC17 / Fold change vs veh, ZDHHC17 / RFU, NOM1 / Fold change vs veh, NOM1 / RFU, ARL8B / Fold change vs veh, ARL8B / RFU, ZBTB11 / Fold change vs veh, ZBTB11 / RFU, TAMM41 / Fold change vs veh, TAMM41 / RFU, KIAA1704 /// LOC100996395 / Fold change vs veh, KIAA1704 /// LOC100996395 / RFU, ING1 / Fold change vs veh, ING1 / RFU, TRMT61B / Fold change vs veh, TRMT61B / RFU, FUBP3 / Fold change vs veh, FUBP3 / RFU, TP53 / Fold change vs veh, TP53 / RFU, TNKS2 / Fold change vs veh, TNKS2 / RFU, ZFP14 / Fold change vs veh, ZFP14 / RFU, ACTR2 / Fold change vs veh, ACTR2 / RFU, PPP3R1 / Fold change vs veh, PPP3R1 / RFU, PIK3R1 / Fold change vs veh, PIK3R1 / RFU, HNRNPA1 / Fold change vs veh, HNRNPA1 / RFU, RNF170 / Fold change vs veh, RNF170 / RFU, ZNF28 / Fold change vs veh, ZNF28 / RFU, RNGTT / Fold change vs veh, RNGTT / RFU, OGT / Fold change vs veh, OGT / RFU, BRD1 / Fold change vs veh, BRD1 / RFU, MARS / Fold change vs veh, MARS / RFU, ZNF655 / Fold change vs veh, ZNF655 / RFU, FAHD1 / Fold change vs veh, FAHD1 / RFU, BDP1 / Fold change vs veh, BDP1 / RFU, LRRCC1 / Fold change vs veh, LRRCC1 / RFU, ARID1A / Fold change vs veh, ARID1A / RFU, ZNF146 / Fold change vs veh, ZNF146 / RFU, ZNF330 / Fold change vs veh, ZNF330 / RFU, GPN3 / Fold change vs veh, GPN3 / RFU, C9orf123 / Fold change vs veh, C9orf123 / RFU, N4BP2L2 / Fold change vs veh, N4BP2L2 / RFU, ARFIP1 / Fold change vs veh, ARFIP1 / RFU, FAM179B / Fold change vs veh, FAM179B / RFU, BCL10 / Fold change vs veh, BCL10 / RFU, UHRF1BP1L / Fold change vs veh, UHRF1BP1L / RFU, BET1 / Fold change vs veh, BET1 / RFU, CNOT2 / Fold change vs veh, CNOT2 / RFU, ZNF268 / Fold change vs veh, ZNF268 / Fold change vs veh, ZNF507 / RFU, DGCR2 / Fold change vs veh, DGCR2 / RFU, WDSUB1 / Fold change vs veh, WDSUB1 / Fold change vs veh, HSP90B1 /// MIR3652 / RFU, ADSS / Fold change vs veh, ADSS / RFU, GK / Fold change vs veh, GK / RFU, ZNF148 / Fold change vs veh, ZNF148 / RFU, TAF9 / Fold change vs veh, TAF9 / RFU, SLC1A5 / Fold change vs veh, SLC1A5 / RFU, SLMO2 / Fold change vs veh, SLMO2 / RFU, ABCC4 / Fold change vs veh, ABCC4 / RFU, LOC101060439 /// RAP1B / Fold change vs veh, LOC101060439 /// RAP1B / RFU, RFX7 / Fold change vs veh, RFX7 / RFU, GTPBP10 / Fold change vs veh, GTPBP10 / RFU, CNEP1R1 / Fold change vs veh, CNEP1R1 / RFU, BIVM-ERCC5 /// ERCC5 / Fold change vs veh, BIVM-ERCC5 /// ERCC5 / RFU, ILF3 / Fold change vs veh, ILF3 / RFU 11762660_at / Fold change /veh 11762660_at / RFU VCAN (11757783_s_at) / Fold change /veh VCAN (11757783_s_at) / RFU DDX43 (11728927_at) / Fold change /veh DDX43 (11728927_at) / RFU KRT8 (11758188_x_at) / Fold change /veh KRT8 (11758188_x_at) / RFU NKD1 (11759106_at) / Fold change /veh NKD1 (11759106_at) / RFU SRD5A1 (11742802_a_at) / Fold change /veh SRD5A1 (11742802_a_at) / RFU TPSAB1 /// TPSB2 (11721975_s_at) / Fold change /veh TPSAB1 /// TPSB2 (11721975_s_at) / RFU GSTM3 (11746129_a_at) / Fold change /veh GSTM3 (11746129_a_at) / RFU IL23R (11737362_x_at) / Fold change /veh IL23R (11737362_x_at) / RFU TMEM51 (11727254_a_at) / Fold change /veh TMEM51 (11727254_a_at) / RFU PIWIL2 (11732686_x_at) / Fold change /veh PIWIL2 (11732686_x_at) / RFU ORM1 (11744905_x_at) / Fold change /veh ORM1 (11744905_x_at) / RFU CCDC152 (11743942_at) / Fold change /veh CCDC152 (11743942_at) / RFU ECM1 (11717891_a_at) / Fold change /veh ECM1 (11717891_a_at) / RFU IL23R (11748794_a_at) / Fold change /veh IL23R (11748794_a_at) / RFU TNFAIP8L3 (11732012_x_at) / Fold change /veh TNFAIP8L3 (11732012_x_at) / RFU MBOAT4 (11741988_at) / Fold change /veh MBOAT4 (11741988_at) / RFU 11764193_at / Fold change /veh 11764193_at / RFU TMEM53 (11763286_at) / Fold change /veh TMEM53 (11763286_at) / RFU MAGEB2 (11727129_at) / Fold change /veh MAGEB2 (11727129_at) / RFU TMEM200A (11744735_a_at) / Fold change /veh TMEM200A (11744735_a_at) / RFU CCDC152 (11751479_a_at) / Fold change /veh CCDC152 (11751479_a_at) / RFU FAM211A (11726209_a_at) / Fold change /veh FAM211A (11726209_a_at) / RFU RGS16 (11746705_a_at) / Fold change /veh RGS16 (11746705_a_at) / RFU VCAN (11755009_s_at) / Fold change /veh VCAN (11755009_s_at) / RFU RHOB (11743442_s_at) / Fold change /veh RHOB (11743442_s_at) / RFU RGS16 (11720943_a_at) / Fold change /veh RGS16 (11720943_a_at) / RFU RGS16 (11720944_at) / Fold change /veh RGS16 (11720944_at) / RFU, VPS4B / Fold change vs veh, VPS4B / RFU, CREB1 / Fold change vs veh, CREB1 / RFU, DNAJC13 / Fold change vs veh, DNAJC13 / RFU, GNAQ / Fold change vs veh, GNAQ / RFU, CDK5R1 / Fold change vs veh, CDK5R1 / RFU, ZRANB3 / Fold change vs veh, ZRANB3 / RFU, CUL4A / Fold change vs veh, CUL4A / RFU, CCNY / Fold change vs veh, CCNY / RFU, UFL1 / Fold change vs veh, UFL1 / RFU, COG3 / Fold change vs veh, COG3 / RFU, DIAPH2 / Fold change vs veh, DIAPH2 / RFU, SKA2 / Fold change vs veh, SKA2 / RFU, AFF3 / Fold change vs veh, AFF3 / RFU, LMF1 / Fold change vs veh, LMF1 / RFU, IPO11 / Fold change vs veh, IPO11 / RFU, DFFB / Fold change vs veh, DFFB / RFU, FOXP1 / Fold change vs veh, FOXP1 / RFU, CARD8 / Fold change vs veh, CARD8 / RFU, STRN3 / Fold change vs veh, STRN3 / RFU, ADK / Fold change vs veh, ADK / RFU, RASSF2 / Fold change vs veh, RASSF2 / RFU, WIPF1 / Fold change vs veh, WIPF1 / RFU, LARP1B / Fold change vs veh, LARP1B / RFU, RASA1 / Fold change vs veh, RASA1 / RFU, RB1 / Fold change vs veh, RB1 / RFU, PPFIA1 / Fold change vs veh, PPFIA1 / RFU, MAT2A / Fold change vs veh, MAT2A / RFU, CCT5 / Fold change vs veh, CCT5 / RFU, WDR92 / Fold change vs veh, WDR92 / RFU, CUX1 / Fold change vs veh, CUX1 / RFU, TTC7A / Fold change vs veh, TTC7A / RFU, TMEM135 / Fold change vs veh, TMEM135 / RFU, DEPTOR / Fold change vs veh, DEPTOR / RFU, CPM / Fold change vs veh, CPM / RFU, DNAJB6 / Fold change vs veh, DNAJB6 / RFU, CACNA2D3 / Fold change vs veh, CACNA2D3 / RFU, DTX4 / Fold change vs veh, DTX4 / RFU, TFCP2 / Fold change vs veh, TFCP2 / RFU, GMCL1 /// GMCL1P1 / Fold change vs veh, GMCL1 /// GMCL1P1 / RFU, AEBP2 / Fold change vs veh, AEBP2 / RFU, SNHG1 /// SNORD22 /// SNORD25 /// SNORD26 /// SNORD27 /// SNORD28 /// SNORD29 /// SNORD31 / Fold change vs veh, SNHG1 /// SNORD22 /// SNORD25 /// SNORD26 /// SNORD27 /// SNORD28 /// SNORD29 /// SNORD31 / Fold change (Aza/veh), C12orf56 (ProbeSet 11735607_a_at) / Fold change (ACY-1035/veh), C12orf56 (ProbeSet 11735607_a_at) / Fold change (Aza/veh), FGFR1OP (ProbeSet 11751329_s_at) / Fold change (ACY-1035/veh), FGFR1OP (ProbeSet 11751329_s_at) / Fold change (Aza/veh), VPS36 (ProbeSet 11739960_a_at) / Fold change (ACY-1035/veh), VPS36 (ProbeSet 11739960_a_at) / RFU SYPL1 (11715823_x_at) / Fold change /veh SYPL1 (11715823_x_at) / RFU IGFBP7 (11715501_s_at) / Fold change /veh IGFBP7 (11715501_s_at) / RFU REEP3 (11722064_at) / Fold change /veh REEP3 (11722064_at) / RFU IGLL1 (11728026_x_at) / Fold change /veh IGLL1 (11728026_x_at): dose or concentration left out as unconfirmed
Conditions: ProbeSet 11725141_a_at; LIST B

Nc1ncn([C@@H]2O[C@H](CO)[C@@H](O)[C@H]2O)c(=O)n1 [azacitidine]
RFU, FUBP3: 470.91 RFU
